Data published in US5668159A, “1,3,4-thiadiazoles and 1,3,4-oxadiazoles as IIb/IIIa antagonists” (The DuPont Merck Pharmaceutical Company, priority 1996, dated 1997).
Counter-ions that a name gives are not always drawn.

These compounds were tested on platelet aggregation (platelet rich plasma (PRP)) (assay: Platelet Aggregation Assay (inhibition of agonist-induced platelet aggregation in platelet rich plasma)). Conditions: with esterase, ester prodrugs preincubated with 100 IU/mL porcine liver esterase 2 hours at 37° C., human PRP, 100 μM ADP, read-out: Platelet Aggregation Assay IC50 (with esterase).
Assay type: cell-based
Protocol: Platelet Aggregation Assay: Venous blood was obtained from the arm of a healthy human donor who was drug-free and aspirin-free for at least two weeks prior to blood collection. Blood was collected into 10 mL citrated Vacutainer tubes. The blood was centrifuged for 15 minutes at 150× g at room temperature, and platelet-rich plasma (PRP) was removed. The remaining blood was centrifuged for 15 minutes at 1500× g at room temperature, and platelet-poor plasma (PPP) was removed. Samples were assayed on a aggregometer (PAP-4 Platelet Aggregation Profiler), using PPP as the blank (100% transmittance). 200 μL of PRP was added to each micro test tube, and transmittance was set to 0%. 20 μL of various agonists (ADP, collagen, arachidonate, epinephrine, thrombin) were added to each tube, and the aggregation profiles were plotted (% transmittance versus time). The results are expressed as % inhibition of agonist-inducedplatelet aggregation. For the IC50 evaluation, the test compounds were added at various concentrations prior to the activation of the platelets.
Ester prodrugs were preincubated (10^-3 M F.C.) with 100 IU/mL Porcine liver esterase (Sigma Chemical Co., St. Louis, Mo., #E-3128) for 2 hours at 37° C. Aliquots are then diluted in 0.1M Tris, p H 7.4, to the desired concentrations. Aliquots of 20 μl of the esterase pretreated prodrugs are added to 200 μl of human platelet rich plasma. Samples were placed in platelet profiler (aggregometer) for 8 minutes at 37° C., followed by the addition of 100 μM Adenosine Diphosphate, (Sigma Chemical Co., St. Louis, Mo., #A-6521), to induce platelet aggregation. Platelet aggregation was allowed to proceed for 5 minutes. Percent inhibition is calculated using percent aggregation in the presence of the test compound divided by percent aggregation of control, times 100. This value is subtracted from 100, yielding percent inhibition. Calculation of IC50 is performed on a Texas Instruments TI59 with an IC50 program.
Table A below sets forth the antiplatelet activity of representative compounds of the present invention. The indicated compounds were tested for their ability to inhibit platelet aggregation (using platelet rich plasma (PRP)). The IC50 value (the concentration of antagonist which inhibits platelet aggregation by 50% relative to a control lacking the antagonist) is shown. In Table A the IC50 values are expressed as: +++=IC50 of <10 μM; ++=IC50 of […]; +=IC50 of 50-100 μM (μM=micromolar).
In the case of CCCCOC(=O)N[C@@H](CNC(=O)Cc1nnc(-c2ccc(C(=N)N)cc2)s1)C(=O)OC [Example 1, Methyl N^3-[2-{2-(4-amidinophenyl)-1,3,4-thiadiazol-5-yl}-acetyl]-N^2-(n-butyloxycarbonyl)-2,3-(S)-diaminopropionate TFA salt], the IC50 is reported as under 10 µM.
With COC(=O)[C@H](CNC(=O)Cc1nnc(-c2ccc(C(=N)N)cc2)s1)NS(=O)(=O)c1cccc(C)c1 [Example 25, Methyl N^3-[2-{2-(4-amidinophenyl)-1,3,4-thiadiazol-5-yl}-acetyl]-N^2-(3-methylphenylsulfonyl)-2,3-(S)-diaminopropionate TFA salt] the IC50 was under 10 µM.
In the case of CNC(=N)c1ccc(-c2nnc(CC(=O)NC[C@H](NS(=O)(=O)c3cccc(C)c3)C(=O)OC)s2)cc1 [Example 44, Methyl N^3-[2-{2-(4-N-methylamidinophenyl)-1,3,4-thiadiazol-5-yl}-acetyl]-N^2-(3-methylphenylsulfonyl)-2,3-(S)-diaminopropionate TFA salt], the IC50 is reported as under 10 µM.
CCCCNC(=N)c1ccc(-c2nnc(CC(=O)NC[C@H](NS(=O)(=O)c3cccc(C)c3)C(=O)OC)s2)cc1 [Example 64, Methyl N^3-[2-{2-(4-N-n-butylamidinophenyl)-1,3,4-thiadiazol-5-yl}-acetyl]-N^2-(3-methylphenylsulfonyl)-2,3-(S)-diaminopropionate TFA salt] showed an IC50 of under 10 µM.
For COC(=O)[C@H](CNC(=O)Cc1nnc(-c2ccc(C(=N)N)cc2)s1)NS(=O)(=O)c1ccccc1C [Example 88, Methyl N^3-[2-{2-(4-amidinophenyl)-1,3,4-thiadiazol-5-yl}-acetyl]-N -(2-methylphenylsulfonyl)-2,3-(S)-diaminopropionate TFA salt], the IC50 was under 10 µM.
With COC(=O)[C@H](CNC(=O)Cc1nnc(-c2ccc(C(=N)N)cc2)s1)NS(=O)(=O)c1c(C)noc1C [Example 96, Methyl N^3-[2-{2-(4-amidinophenyl)-1,3,4-thiadiazol-5-yl}-acetyl]-N^2-(3,5-dimethylisoxazol-4-ylsulfonyl)-2,3-(S)-diaminopropionate TFA salt] the IC50 was under 10 µM.
In the case of COC(=O)[C@H](CNC(=O)CCCc1nnc(C2CCNCC2)s1)NS(=O)(=O)c1cccc(C)c1 [Example 133, Methyl N^3-[4-{2-(4-piperidinyl)-1,3,4-thiadiazol-5-yl}-butyryl]-N^2-(3-methylphenylsulfonyl)-2,3-(S)-diaminopropionate TFA salt], the IC50 is reported as under 10 µM.
Compound COC(=O)[C@H](CNC(=O)Cc1nnc(-c2ccc(NC(=N)N)cc2)s1)NS(=O)(=O)c1cccc(C)c1 [Example 145, Methyl N^3-[2-{2-(4-guanidinophenyl)-1,3,4-thiadiazol-5-yl}-acetyl]-N^2-(3-methylphenylsulfonyl)-2,3-(S)-diaminopropionate TFA salt] has an IC50 of under 10 µM.
COC(=O)[C@H](CNC(=O)Cc1nnc(-c2ccc(C(N)=O)cc2)s1)NS(=O)(=O)c1cccc(C)c1 [Example 170, Methyl N^3-[2-{2-(4-amidophenyl)-1,3,4-thiadiazol-5-yl}-acetyl]-N^2-(3-methylphenylsulfonyl)-2,3-(S)-diaminopropionate] was tested, and the IC50 was 50 to 100 µM.
For CCCCOC(=O)N[C@@H](CNC(=O)CSc1nnc(-c2ccc(C(=N)N)cc2)s1)C(=O)OC [Example 192, Methyl N^3-[2-{2-(4-amidinophenyl)-1,3,4-thiadiazol-5-ylthio}acetyl]-N^2-(n-butoxycarbonyl)-2,3-(S)-diaminopropionate HCl salt], the IC50 was under 10 µM.
Work on CCCCOC(=O)N[C@@H](CNC(=O)CSc1nnc(-c2ccc(NC(=N)N)cc2)o1)C(=O)OC [Example 242, Methyl N^3-[2-{2-(4-guanidinophenyl)-1,3,4-oxadiazol-5-ylthio}acetyl]-N^2-(n-butoxycarbonyl)-2,3-(S)-diaminopropionate TFA salt] yielded an IC50 of 10 to 50 µM.
CCCCOC(=O)N[C@@H](CNC(=O)CSc1nnc(-c2ccc(C(=N)N)cc2)o1)C(=O)OC [Example 258, Methyl N^3-[2-{2-(4-amidinophenyl)-1,3,4-oxadiazol-5-ylthio}-acetyl]-N^2-(n-butyloxycarbonyl)-2,3-(S)-diamino propionate HCl salt] gave an IC50 of under 10 µM.
CCCCOC(=O)N[C@@H](CNC(=O)Cc1nnc(-c2ccc(C(=N)N)cc2)o1)C(=O)OC [Example 318, Methyl N^3-[2-{2-(4-amidinophenyl)-1,3,4-oxadiazol-5-yl}-acetyl]-N-^2-(n-butyloxycarbonyl)-2,3-(S)-diaminopropionate TFA salt] gave an IC50 of 50 to 100 µM.
Compound CCCCOC(=O)N[C@@H](CNC(=O)Cc1nnc(-c2ccc(NC(=N)N)cc2)o1)C(=O)OC [Example 335, Methyl N^3-[2-{2-(4-guanidinophenyl)-1,3,4-oxadiazol-5-yl}-acetyl]-N2-(n-butyloxycarbonyl)-2,3-(S)-diaminopropionate TFA salt] has an IC50 of under 10 µM.
COC(=O)[C@H](Cc1ccccc1)NC(=O)CSc1nnc(-c2ccc(NC(=N)N)cc2)o1 [Example 392, Methyl N-[2-{2-(4-guanidinophenyl)-1,3,4-oxadiazol-5-ylthio}-acetyl]-(S)-phenylalanine TFA salt] was tested, and the IC50 was 10 to 50 µM.

Same assay, conditions: without esterase, human PRP, read-out: Platelet Aggregation Assay IC50 (without esterase)
With CCCCOC(=O)N[C@@H](CNC(=O)Cc1nnc(-c2ccc(C(=N)N)cc2)s1)C(=O)O [Example 2, N^3-[2-{2-(4-amidinophenyl)-1,3,4-thiadiazol-5-yl}-acetyl]-N^2-(n-butyloxycarbonyl)-2,3-(S)-diaminopropionic acid HCl salt] the IC50 was under 10 µM.
Work on Cc1cccc(S(=O)(=O)N[C@@H](CNC(=O)Cc2nnc(-c3ccc(C(=N)N)cc3)s2)C(=O)O)c1 [Example 26, N^3-[2-{2-(4-amidinophenyl)-1,3,4-thiadiazol-5-yl}-acetyl]-N^2-(3-methylphenylsulfonyl)-2,3-(S)-diaminopropionic acid HCl salt] yielded an IC50 of under 10 µM.
Work on CNC(=N)c1ccc(-c2nnc(CC(=O)NC[C@H](NS(=O)(=O)c3cccc(C)c3)C(=O)O)s2)cc1 [Example 63, N^3-[2-{2-(4-N-methylamidinophenyl)-1,3,4-thiadiazol-5-yl}-acetyl]-N^2-(3-methylphenylsulfonyl)-2,3-(S)-diaminopropionic acid HCl salt] yielded an IC50 of under 10 µM.
CCCCNC(=N)c1ccc(-c2nnc(CC(=O)NC[C@H](NS(=O)(=O)c3cccc(C)c3)C(=O)O)s2)cc1 [Example 65, N^3-[2-{2-(4-N-n-butylamidinophenyl)-1,3,4-thiadiazol-5-yl}-acetyl]-N^2-(3-methylphenylsulfonyl)-2,3-(S)-diaminopropionic acid HCl salt] gave an IC50 of under 10 µM.
Compound Cc1ccccc1S(=O)(=O)N[C@@H](CNC(=O)Cc1nnc(-c2ccc(C(=N)N)cc2)s1)C(=O)O [Example 89, N^3-[2-{2-(4-amidinophenyl)-1,3,4-thiadiazol-5-yl}-acetyl]-N^2-(2-methylphenylsulfonyl)-2,3-(S)-diaminopropionate acid HCl salt] has an IC50 of under 10 µM.
Cc1noc(C)c1S(=O)(=O)N[C@@H](CNC(=O)Cc1nnc(-c2ccc(C(=N)N)cc2)s1)C(=O)O [Example 97, N^3-[2-{2-(4-amidinophenyl)-1,3,4-thiadiazol-5-yl}-acetyl]-N^2-(3,5-dimethylisoxazol-4-ylsulfonyl)-2,3-(S)-diaminopropionic acid HCl salt] was tested, and the IC50 was under 10 µM.
Cc1cccc(S(=O)(=O)N[C@@H](CNC(=O)CCCc2nnc(C3CCNCC3)s2)C(=O)O)c1 [Example 134, N^3-[4-{2-(4-piperidinyl)-1,3,4-thiadiazol-5-yl}-butyryl]-N^2-(3-methylphenylsulfonyl)-2,3-(S)-diaminopropionic acid TFA salt] was tested, and the IC50 was under 10 µM.
Cc1cccc(S(=O)(=O)N[C@@H](CNC(=O)Cc2nnc(-c3ccc(NC(=N)N)cc3)s2)C(=O)O)c1 [Example 146, N^3-[2-{2-(4-guanidinophenyl)-1,3,4-thiadiazol-5-yl}-acetyl]-N^2-(3-methylphenylsulfonyl)-2,3-(S)-diaminopropionic acid TFA salt] gave an IC50 of under 10 µM.
Cc1cccc(S(=O)(=O)N[C@@H](CNC(=O)Cc2nnc(-c3ccc(C(N)=O)cc3)s2)C(=O)O)c1 [Example 171, N^3-[2-{2-(4-Amidophenyl)-1,3,4-thiadiazol-5-yl}-acetyl]-N^2-(3-methylphenylsulfonyl)-2,3-(S)-diaminopropionic acid] gave an IC50 of under 10 µM.
In the case of CCCCOC(=O)N[C@@H](CNC(=O)CSc1nnc(-c2ccc(C(=N)N)cc2)s1)C(=O)O [Example 193, N^3-[2-{2-(4-Amidinophenyl)-1,3,4-thiadiazol-5-ylthio}acetyl]-N^2-(n-butoxycarbonyl)-2,3-(S)-diaminopropionic acid HCl salt], the IC50 is reported as under 10 µM.
